Assay results published in patent US4386103A, “Dichloroamino acid derivatives useful as potent germicidal and fungicidal agents” (Merck & Co., Inc., priority 1981, dated 1983).

Assays:
Type in all cases: cell-based
Salmonella typhimurium = assay: Contact germicidal screen, Salmonella typhimurium ATCC No. 13311
Protocol: (§1) The organisms used in the contact germicidal screen are all maintained as stock cultures on nutrient agar […] 4° C. They are transferred and biochemically diagnosed monthly. The five organisms used are: The media used are: […] Overnight cultures of the test organisms are grown in tryptose phosphate broth. After 15-16 hours, the cultures are centrifuged at […] for 15 minutes, and the supernatant replaced with fresh warm (37° C.) media. After two hours of incubation, the absorbance of the culture at 650 nm is determined and diluted with nutrient broth to 1×10^7 colony forming units per ml (using a previous determined standard curve: colony forming units/ml vs. absorbance at 650). The diluted cultures are maintained at 4°-8° C. throughout the screen. The compounds are weighed into sterile 100 ml volumetric flasks, and immediately before screening dissolved in one of the following buffers: 0.1 M NaOAc pH 4.6 or 0.1 M NaH2 PO4 pH 7.0. If solubility poses a problem, 10-30% methanol is used to effect solution. Two denaturing agents are also tested: […] Horse Serum restored with 100 ml distilled water and 10% Trition×100. When used, 2.5 ml of the denaturing agent is mixed with 2.5 ml of double strength test solution thirty minutes before the bacterial suspension is added. The screen is initiated when 0.2 ml of the bacterial suspension is added to 5.0 ml of the test solution contained in a sterile 25 ml glass stoppered flask. At intervals of 0.5, 2.5, 5.0, 10.0 and 15.0 minutes, a loopful of the inoculated test solution is subcultured into 5 ml of sterile nutrient broth and mixed with a vortex, the high dilution serving to stop the action of the compound. All of the subculture tubes are incubated at 37° C. and checked for signs of growth by turbidity at 1, 3, 5 and 7 days. The earliest subculture time at which no growth is present is considered the endpoint and is recorded as the sterilization time. An aliquot of 0.2 ml of the diluted culture is transferred to 5 ml of buffer to simulate 0.2 ml in 5 ml of test solution. (a) Purity: A loopful of the inoculated buffer is streaked onto nutrient agar to check colony morphology and lack of contaminants. (b) Viability: A loopful of the inoculated buffer is subcultured to 5 ml of nutrient broth as in the screen and incubated at 37° C. for 24 hours. (c) Dilution of the Test Solution: A loopful of the test solution is transferred to a 5 ml tube of nutrient broth, and a loopful of the inoculated buffer is transferred to the same tube of broth. […] (d) Purity of Organisms in the Test Solution: After the 15 minute subculture, a loopful of the inoculated test solution is streaked onto nutrient agar to insure that contamination has not occurred during the screen. (e) lack of Bactericidal Activity of Buffers and Other Solvents: Before a buffer or other solvent is used as a diluent, it is screened against the five organisms to insure that the buffer or solvent has no antibacterial activity itself.

Pseudamonas aeruginosa = assay: Contact germicidal screen, Pseudamonas aeruginosa ATCC No. 14502
Protocol: as §1

Rhizopus oryzae = assay: Contact fungicidal screen, Rhizopus oryzae; settings: 0.1M NaOAc pH 4.6
Protocol: The organisms used in the Contact Fungicidal Screen are a dermatophyte, trychophyton mentagrophytes, frequently associated with athlete's foot; a yeast, Candida albican, causative agent of thrush and vaginitis; a phycomycete, Rhizopus oryzae, commonly known as black bread mold; an ascomycete, Aspergillus fumagatis, found in chicken droppings and causing lung infections; and another dermatophyte, Microsporum canis, which causes ringworm. These organisms are maintained as stock cultures at 4° C. on agar slants of the following composition: dextrose 2%, Neopeptone (Difco) 1%, agar 2%. Fluid medium of the same nutrient composition (without agar) was used to test the viability of the organisms after exposure to the fungicide. This medium is also known as Sabouraud's medium.
[…]. The mycelial mat is removed from the surface of the agar using a sterile spatula. It is transferred to a heat sterilized glass tissue grinder and macerated with 25 ml of sterile physiological saline. The suspension is then filtered through sterile glass wool. The density of the sporangia spore suspension is determined by counting in a hemacytometer. The suspension is stored at 4° C. until it was used, at which time it was diluted with sterile physiological saline to a density of 5×10^6 spores per ml.
The compounds are weighed into heat sterilized 100 ml volumetric flasks and immediately before screening dissolved in 0.1 M NaOAc pH 4.6 buffer (test solutions).
The Aspergillus, Candida, Microsporum and Rhizopus species are screened in a slightly different manner. Basically, the procedure for the Contact Germicidal Efficiency Screen is utilized. After the test solutions are made up, 5 ml aliquots are pipetted into heat sterilized 25 ml glass stoppered erlenmeyer flasks. The screen is initiated when 0.5 ml of the 5×10^6 cell (spore) per ml suspension is added to the flask containing 5 ml of the test solution. At intervals of 0.5, 2.5, 5.0, 10.0 and 15.0 minutes, a 4 mm loopful of the inoculated test solution is subcultured into 7 mL of sterile fluid Sabouraud's medium and mixed on a vortex, the high dilution serving to stop the action of the compound. The subculture tubes are incubated at 25°-30° C. for ten days with daily observation for mycelial growth. The earliest subculture time at which no growth is present is considered the endpoint and is recorded as the sterilization time.
To insure the viability of the culture, a 0.5 ml aliquot of the 5×10^6 cells (spores) per ml suspension is transferred to 5 ml of the pH 4.6 buffer. A loopful of the inoculated buffer is then subcultured to 7 ml of fluid Sabouraud's medium and incubated at 25°-30° C. for ten days. To insure that the dilution of the test solution into the subculture medium does stop the action, a loopful of the test solution and a loopful of the inoculated buffer are transferred into the same subculture tube. This tube is also incubated at 25°-30° C. for ten days.

[1] = 10.0+ PPM, 0.1M NaOAc pH 4.6, screened simultaneously with four other compounds
[2] = 51.0 PPM, Triton X100 (10% solution):pH 4.6 buffer 1:1
[3] = 51.0 PPM, horse serum:pH 4.6 buffer 1:1
[4] = 300 PPM with 50% Horse Serum, 0.1M NaOAc pH 4.6
[5] = 300 PPM with 50% Triton X100, 0.1M NaOAc pH 4.6
[6] = 300 PPM, pH 4.6 buffer with 10% serum
[7] = 300 PPM, pH 4.6 buffer with 20% serum
[8] = 300 PPM, pH 4.6 buffer with 35% serum
[9] = 304.6 PPM, horse serum:pH 4.6 buffer 1:1
[10] = 304.8 PPM, Triton X100 (10% solution):pH 4.6 buffer 1:1
[11] = 606.9 PPM, pH 4.6 buffer with 33% serum
[12] = 899.25 PPM, pH 4.6 buffer with 25% serum
[13] = 1000 PPM with 50% Horse Serum, 0.1M NaOAc pH 4.6
[14] = 1001.2 PPM, horse serum:pH 4.6 buffer 1:1
[15] = 1016.0 PPM, 0.1M NaH2PO4 pH 7.0

`CC(C)(CC(=O)O)N(Cl)Cl` [(II)] was tested, and the “Sterilization Time” value (Salmonella typhimurium; 1.8 PPM, 0.1M NaOAc pH 4.6) was 5.0 min, the “Sterilization Time” value (Salmonella typhimurium; 4.5 PPM, 0.1M NaOAc pH 4.6) was 2.5 min and the “Sterilization Time” value (Salmonella typhimurium; [1]) was 0.5 min. The “Sterilization Time (summary)” value (Salmonella typhimurium; 10 PPM, 0.1M NaOAc pH 4.6) was 0.5 min, the “Sterilization Time” value (Salmonella typhimurium; 10.0 PPM, 0.1M NaOAc pH 4.6) was 0.5 min and the “Sterilization Time” value (Salmonella typhimurium; 12.2 PPM, 0.1M NaOAc pH 4.6) was 0.5 min. For the same compound, the “Sterilization Time” value (Salmonella typhimurium; 32.1 PPM, 0.1M NaOAc pH 4.6) was 0.5 min, the “Sterilization Time” value (Salmonella typhimurium; [2]) was 0.5 min and the “Sterilization Time” value (Salmonella typhimurium; [3]) was 15 min. The “Sterilization Time” value (Salmonella typhimurium; 71.7 PPM, 0.1M NaOAc pH 4.6) was 0.5 min, the “Sterilization Time (summary)” value (Salmonella typhimurium; 100 PPM, 0.1M NaOAc pH 4.6) was 0.5 min and the “Sterilization Time” value (Salmonella typhimurium; 104.7 PPM, 0.1M NaOAc pH 4.6) was 0.5 min. For the same compound, the “Sterilization Time” value (Salmonella typhimurium; 107.8 PPM, 0.1M NaH2PO4 pH 7.0) was 2.5 min, the “Sterilization Time” value (Salmonella typhimurium; 298.9 PPM, 0.1M NaOAc pH 4.6) was 0.5 min and the “Sterilization Time (summary)” value (Salmonella typhimurium; [4]) was 2.5 min. For the same compound, the “Sterilization Time (summary)” value (Salmonella typhimurium; [5]) was 0.5 min, the “Sterilization Time” value (Salmonella typhimurium; [6]) was 0.5 min and the “Sterilization Time” value (Salmonella typhimurium; [7]) was 0.5 min. For the same compound, the “Sterilization Time” value (Salmonella typhimurium; [8]) was 2.5 min, the “Sterilization Time” value (Salmonella typhimurium; [9]) was 2.5 min and the “Sterilization Time” value (Salmonella typhimurium; [10]) was 0.5 min. The “Sterilization Time” value (Salmonella typhimurium; 316.6 PPM, 0.1M NaH2PO4 pH 7.0) was 2.5 min, the “Sterilization Time” value (Salmonella typhimurium; [11]) was 0.5 min and the “Sterilization Time” value (Salmonella typhimurium; [12]) was 0.5 min. For the same compound, the “Sterilization Time (summary)” value (Salmonella typhimurium; [13]) was 0.5 min, the “Sterilization Time (summary)” value (Salmonella typhimurium; 1000 PPM, 0.1M NaOAc pH 4.6) was 0.5 min and the “Sterilization Time” value (Salmonella typhimurium; [14]) was 0.5 min. For the same compound, the “Sterilization Time” value (Salmonella typhimurium; 1014.8 PPM, 0.1M NaOAc pH 4.6) was 0.5 min, the “Sterilization Time” value (Salmonella typhimurium; [15]) was 0.5 min and the “Sterilization Time” value (Pseudamonas aeruginosa; 1.8 PPM, 0.1M NaOAc pH 4.6) was 15 min. For the same compound, the “Sterilization Time” value (Pseudamonas aeruginosa; 4.5 PPM, 0.1M NaOAc pH 4.6) was 5.0 min, the “Sterilization Time” value (Pseudamonas aeruginosa; [1]) was 2.5 min and the “Sterilization Time (summary)” value (Pseudamonas aeruginosa; 10 PPM, 0.1M NaOAc pH 4.6) was 2.5 min. The “Sterilization Time” value (Pseudamonas aeruginosa; 10.0 PPM, 0.1M NaOAc pH 4.6) was 2.5 min, the “Sterilization Time” value (Pseudamonas aeruginosa; 12.2 PPM, 0.1M NaOAc pH 4.6) was 2.5 min and the “Sterilization Time” value (Pseudamonas aeruginosa; 32.1 PPM, 0.1M NaOAc pH 4.6) was 2.5 min. For the same compound, the “Sterilization Time” value (Pseudamonas aeruginosa; [2]) was 2.5 min, the “Sterilization Time” value (Pseudamonas aeruginosa; [3]) was 15 min and the “Sterilization Time” value (Pseudamonas aeruginosa; 71.7 PPM, 0.1M NaOAc pH 4.6) was 0.5 min. For the same compound, the “Sterilization Time (summary)” value (Pseudamonas aeruginosa; 100 PPM, 0.1M NaOAc pH 4.6) was 0.5 min, the “Sterilization Time” value (Pseudamonas aeruginosa; 104.7 PPM, 0.1M NaOAc pH 4.6) was 0.5 min and the “Sterilization Time” value (Pseudamonas aeruginosa; 107.8 PPM, 0.1M NaH2PO4 pH 7.0) was 15 min. The “Sterilization Time” value (Pseudamonas aeruginosa; 298.9 PPM, 0.1M NaOAc pH 4.6) was 0.5 min, the “Sterilization Time (summary)” value (Pseudamonas aeruginosa; [4]) was 15 min and the “Sterilization Time (summary)” value (Pseudamonas aeruginosa; [5]) was 0.5 min. The “Sterilization Time” value (Pseudamonas aeruginosa; [6]) was 0.5 min, the “Sterilization Time” value (Pseudamonas aeruginosa; [7]) was 2.5 min and the “Sterilization Time” value (Pseudamonas aeruginosa; [8]) was 10.0 min. For the same compound, the “Sterilization Time” value (Pseudamonas aeruginosa; [9]) was 15 min, the “Sterilization Time” value (Pseudamonas aeruginosa; [10]) was 0.5 min and the “Sterilization Time” value (Pseudamonas aeruginosa; 316.6 PPM, 0.1M NaH2PO4 pH 7.0) was 5.0 min. For the same compound, the “Sterilization Time” value (Pseudamonas aeruginosa; [11]) was 2.5 min, the “Sterilization Time” value (Pseudamonas aeruginosa; [12]) was 0.5 min and the “Sterilization Time (summary)” value (Pseudamonas aeruginosa; [13]) was 2.5 min. For the same compound, the “Sterilization Time (summary)” value (Pseudamonas aeruginosa; 1000 PPM, 0.1M NaOAc pH 4.6) was 0.5 min, the “Sterilization Time” value (Pseudamonas aeruginosa; [14]) was 2.5 min and the “Sterilization Time” value (Pseudamonas aeruginosa; 1014.8 PPM, 0.1M NaOAc pH 4.6) was 0.5 min. For the same compound, the “Sterilization Time” value (Pseudamonas aeruginosa; [15]) was 2.5 min, the “Sterilization Time” value (Rhizopus oryzae; 10 PPM) was 15 min and the “Sterilization Time” value (Rhizopus oryzae; 100 PPM) was 15 min. For the same compound, the “Sterilization Time” value (Rhizopus oryzae; 1000 PPM) was 10.0 min.
